Test results taken from ChEMBL document CHEMBL4507276 (2021).

Legend:
Conditions in all cases: Compound concentration 1000.0 nM
[1] = biological target: Fibroblast growth factor receptor 4 (Homo sapiens) (UniProt P22455)
[2] = biological target: T1, Ephrin type-B receptor 4 (Homo sapiens) (UniProt P54760)
T1 sequence (whole entry): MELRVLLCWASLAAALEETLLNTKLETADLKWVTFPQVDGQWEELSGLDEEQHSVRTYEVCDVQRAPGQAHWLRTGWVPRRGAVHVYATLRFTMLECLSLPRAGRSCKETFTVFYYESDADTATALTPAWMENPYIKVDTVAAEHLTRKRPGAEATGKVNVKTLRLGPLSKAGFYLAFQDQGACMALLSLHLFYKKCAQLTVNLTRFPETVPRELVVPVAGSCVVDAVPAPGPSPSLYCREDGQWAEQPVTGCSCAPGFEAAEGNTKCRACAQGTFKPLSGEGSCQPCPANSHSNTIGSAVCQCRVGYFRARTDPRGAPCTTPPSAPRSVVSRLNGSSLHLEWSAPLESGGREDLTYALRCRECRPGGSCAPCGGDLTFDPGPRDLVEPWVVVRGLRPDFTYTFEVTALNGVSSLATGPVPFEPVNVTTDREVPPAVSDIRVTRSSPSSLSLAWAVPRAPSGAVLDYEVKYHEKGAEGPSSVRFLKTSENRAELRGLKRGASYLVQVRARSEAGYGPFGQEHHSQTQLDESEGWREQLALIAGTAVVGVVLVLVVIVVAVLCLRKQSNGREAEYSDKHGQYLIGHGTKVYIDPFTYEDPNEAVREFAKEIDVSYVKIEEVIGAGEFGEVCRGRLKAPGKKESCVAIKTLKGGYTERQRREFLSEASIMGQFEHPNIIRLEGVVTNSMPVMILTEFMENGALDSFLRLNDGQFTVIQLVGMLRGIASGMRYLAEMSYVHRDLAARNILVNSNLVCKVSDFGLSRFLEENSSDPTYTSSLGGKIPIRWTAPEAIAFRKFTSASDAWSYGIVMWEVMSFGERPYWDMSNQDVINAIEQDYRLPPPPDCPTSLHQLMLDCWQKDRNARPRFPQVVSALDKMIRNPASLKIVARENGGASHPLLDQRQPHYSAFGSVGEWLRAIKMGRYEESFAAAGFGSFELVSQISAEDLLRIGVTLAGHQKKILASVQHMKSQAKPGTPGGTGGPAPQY

[3] = system: Phosphatidylinositol 4,5-bisphosphate 3-kinase catalytic subunit alpha isoform (Homo sapiens), P42336 [Q546K]
[4] = biological target: Rhodopsin kinase GRK1 (Homo sapiens) (UniProt Q15835)
[5] = biological target: Serine/threonine-protein kinase RIO2 (Homo sapiens) (UniProt Q9BVS4)
[6] = biological target: Cyclin-G-associated kinase (Homo sapiens) (UniProt O14976)
[7] = system: Phosphatidylinositol 4,5-bisphosphate 3-kinase catalytic subunit alpha isoform (Homo sapiens), P42336 [E545A]
[8] = biological target: Phosphatidylinositol 3-kinase C2 domain-containing subunit gamma (Homo sapiens) (UniProt O75747)
[9] = biological target: Mitogen-activated protein kinase 15 (Homo sapiens) (UniProt Q8TD08)
[10] = system: ALK tyrosine kinase receptor (Homo sapiens), Q9UM73 [C1156Y]
[11] = biological target: Ribosomal protein S6 kinase alpha-2 (Homo sapiens) (UniProt Q15349)
[12] = system: Tyrosine-protein kinase ABL1 (Homo sapiens), P00519 [T315I]
[13] = biological target: T2, Myotonin-protein kinase (Homo sapiens) (UniProt Q09013)
T2 sequence (whole entry): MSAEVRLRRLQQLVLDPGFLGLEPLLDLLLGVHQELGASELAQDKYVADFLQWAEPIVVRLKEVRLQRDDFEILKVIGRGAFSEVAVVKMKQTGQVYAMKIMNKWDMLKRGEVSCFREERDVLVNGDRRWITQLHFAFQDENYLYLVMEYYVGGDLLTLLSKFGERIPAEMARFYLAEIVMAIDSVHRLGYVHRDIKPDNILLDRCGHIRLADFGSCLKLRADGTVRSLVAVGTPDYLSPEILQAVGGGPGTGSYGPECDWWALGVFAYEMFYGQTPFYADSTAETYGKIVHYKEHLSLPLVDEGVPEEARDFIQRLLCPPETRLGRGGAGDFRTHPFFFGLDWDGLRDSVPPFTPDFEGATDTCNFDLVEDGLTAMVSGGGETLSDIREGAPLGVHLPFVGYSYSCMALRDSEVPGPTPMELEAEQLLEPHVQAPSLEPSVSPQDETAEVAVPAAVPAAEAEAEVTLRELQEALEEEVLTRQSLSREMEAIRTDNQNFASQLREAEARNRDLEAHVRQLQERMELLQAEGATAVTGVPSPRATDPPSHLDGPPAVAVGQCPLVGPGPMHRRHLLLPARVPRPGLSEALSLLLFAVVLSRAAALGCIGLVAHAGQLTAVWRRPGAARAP

[14] = biological target: Cyclin-dependent kinase 2 (Homo sapiens) (UniProt P24941)
[15] = biological target: Phosphorylase b kinase regulatory subunit alpha, liver isoform (Homo sapiens) (UniProt P46019)
[16] = system: Phosphatidylinositol 4,5-bisphosphate 3-kinase catalytic subunit alpha isoform (Homo sapiens), P42336 [H1047Y]
[17] = biological target: Serine/threonine-protein kinase 10 (Homo sapiens) (UniProt O94804)

Measured: residual activity

Mitogen-activated protein kinase 15 (Homo sapiens), sequence (Q8TD08 whole entry): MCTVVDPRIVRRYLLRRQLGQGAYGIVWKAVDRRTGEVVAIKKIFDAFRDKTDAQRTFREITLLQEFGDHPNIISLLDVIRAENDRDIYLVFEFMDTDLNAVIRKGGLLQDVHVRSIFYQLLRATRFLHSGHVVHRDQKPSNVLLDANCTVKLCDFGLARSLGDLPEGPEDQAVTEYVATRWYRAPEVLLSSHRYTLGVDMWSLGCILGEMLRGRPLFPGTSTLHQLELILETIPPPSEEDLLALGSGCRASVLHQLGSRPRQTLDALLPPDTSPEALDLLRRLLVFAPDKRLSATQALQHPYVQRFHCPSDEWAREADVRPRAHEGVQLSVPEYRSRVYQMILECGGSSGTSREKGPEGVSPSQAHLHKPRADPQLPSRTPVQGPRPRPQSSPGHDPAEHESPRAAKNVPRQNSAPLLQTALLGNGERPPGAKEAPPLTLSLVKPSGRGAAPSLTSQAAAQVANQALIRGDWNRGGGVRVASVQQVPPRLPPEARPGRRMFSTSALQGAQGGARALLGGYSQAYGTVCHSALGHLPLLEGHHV
ALK tyrosine kinase receptor (Homo sapiens), Q9UM73 [C1156Y], sequence (Q9UM73 whole entry C1156Y, looked up): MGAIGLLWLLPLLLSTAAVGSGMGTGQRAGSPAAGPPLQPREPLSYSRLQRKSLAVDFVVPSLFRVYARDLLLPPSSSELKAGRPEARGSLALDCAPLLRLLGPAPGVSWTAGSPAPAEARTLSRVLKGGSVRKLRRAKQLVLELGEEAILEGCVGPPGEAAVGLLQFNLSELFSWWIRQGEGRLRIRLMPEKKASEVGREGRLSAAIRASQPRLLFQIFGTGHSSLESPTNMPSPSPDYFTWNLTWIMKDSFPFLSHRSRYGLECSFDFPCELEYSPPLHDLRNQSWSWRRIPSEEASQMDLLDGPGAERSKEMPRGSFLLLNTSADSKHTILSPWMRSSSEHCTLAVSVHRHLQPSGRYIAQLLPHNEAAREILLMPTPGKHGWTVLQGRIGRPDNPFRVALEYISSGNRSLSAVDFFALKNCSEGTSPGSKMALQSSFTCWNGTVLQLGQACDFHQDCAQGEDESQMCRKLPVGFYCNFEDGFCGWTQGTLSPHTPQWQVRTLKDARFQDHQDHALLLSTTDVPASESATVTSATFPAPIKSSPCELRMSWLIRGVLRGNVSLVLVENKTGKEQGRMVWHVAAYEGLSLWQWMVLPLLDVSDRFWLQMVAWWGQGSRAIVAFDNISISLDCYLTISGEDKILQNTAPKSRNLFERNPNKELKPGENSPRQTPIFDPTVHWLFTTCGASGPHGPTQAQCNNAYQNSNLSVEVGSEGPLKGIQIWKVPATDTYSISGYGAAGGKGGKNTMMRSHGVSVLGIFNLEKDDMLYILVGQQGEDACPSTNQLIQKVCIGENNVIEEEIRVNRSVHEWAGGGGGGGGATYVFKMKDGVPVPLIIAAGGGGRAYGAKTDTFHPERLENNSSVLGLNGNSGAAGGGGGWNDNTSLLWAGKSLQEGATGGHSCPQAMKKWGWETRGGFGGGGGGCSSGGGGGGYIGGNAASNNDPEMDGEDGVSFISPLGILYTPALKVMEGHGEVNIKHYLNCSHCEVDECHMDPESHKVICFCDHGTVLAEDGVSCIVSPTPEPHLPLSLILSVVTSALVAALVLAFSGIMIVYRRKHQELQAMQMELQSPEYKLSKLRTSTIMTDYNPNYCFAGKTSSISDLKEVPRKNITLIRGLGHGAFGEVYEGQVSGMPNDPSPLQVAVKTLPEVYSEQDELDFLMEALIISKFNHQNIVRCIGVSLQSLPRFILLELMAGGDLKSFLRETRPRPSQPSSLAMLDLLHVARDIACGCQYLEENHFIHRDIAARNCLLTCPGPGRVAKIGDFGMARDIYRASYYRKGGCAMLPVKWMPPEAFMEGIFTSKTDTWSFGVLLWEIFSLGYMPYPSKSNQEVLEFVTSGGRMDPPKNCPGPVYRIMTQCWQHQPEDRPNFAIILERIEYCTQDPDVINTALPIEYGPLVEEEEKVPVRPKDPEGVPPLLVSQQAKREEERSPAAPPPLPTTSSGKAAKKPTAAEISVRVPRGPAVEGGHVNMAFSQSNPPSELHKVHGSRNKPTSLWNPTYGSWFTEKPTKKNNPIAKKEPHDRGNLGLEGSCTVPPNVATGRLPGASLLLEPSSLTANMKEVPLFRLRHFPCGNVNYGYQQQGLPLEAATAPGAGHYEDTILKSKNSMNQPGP
Phosphatidylinositol 4,5-bisphosphate 3-kinase catalytic subunit alpha isoform (Homo sapiens), P42336 [H1047Y], sequence (P42336 whole entry H1047Y, canonical isoform): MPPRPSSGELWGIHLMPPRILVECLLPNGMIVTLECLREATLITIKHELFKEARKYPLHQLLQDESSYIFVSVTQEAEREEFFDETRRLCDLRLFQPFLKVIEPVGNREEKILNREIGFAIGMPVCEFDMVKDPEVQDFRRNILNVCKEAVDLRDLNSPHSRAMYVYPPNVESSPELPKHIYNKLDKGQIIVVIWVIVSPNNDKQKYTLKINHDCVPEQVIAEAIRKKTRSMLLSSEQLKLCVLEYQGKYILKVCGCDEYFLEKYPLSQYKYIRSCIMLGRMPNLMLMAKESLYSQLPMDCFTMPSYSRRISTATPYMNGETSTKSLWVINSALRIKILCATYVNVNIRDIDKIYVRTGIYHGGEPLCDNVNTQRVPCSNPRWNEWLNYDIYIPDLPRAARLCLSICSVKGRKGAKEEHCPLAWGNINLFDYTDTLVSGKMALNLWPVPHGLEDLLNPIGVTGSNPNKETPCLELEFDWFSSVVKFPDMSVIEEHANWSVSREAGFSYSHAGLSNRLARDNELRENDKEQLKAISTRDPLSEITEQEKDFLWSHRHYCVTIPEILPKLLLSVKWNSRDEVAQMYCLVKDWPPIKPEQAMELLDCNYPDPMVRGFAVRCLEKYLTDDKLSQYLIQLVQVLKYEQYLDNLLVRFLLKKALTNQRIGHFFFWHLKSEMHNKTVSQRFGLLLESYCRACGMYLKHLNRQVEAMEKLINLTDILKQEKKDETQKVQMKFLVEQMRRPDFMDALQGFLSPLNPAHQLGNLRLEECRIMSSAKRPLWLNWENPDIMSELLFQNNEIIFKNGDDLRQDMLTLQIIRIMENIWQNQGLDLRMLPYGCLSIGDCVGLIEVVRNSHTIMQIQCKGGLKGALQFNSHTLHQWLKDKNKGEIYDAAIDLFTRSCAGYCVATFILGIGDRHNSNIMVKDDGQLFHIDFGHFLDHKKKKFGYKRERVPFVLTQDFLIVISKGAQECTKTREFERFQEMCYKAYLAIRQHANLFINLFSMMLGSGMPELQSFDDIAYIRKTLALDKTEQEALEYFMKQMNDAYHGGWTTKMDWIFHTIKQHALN
Phosphatidylinositol 4,5-bisphosphate 3-kinase catalytic subunit alpha isoform (Homo sapiens), P42336 [Q546K], sequence (P42336 whole entry Q546K, canonical isoform): as the sequence (P42336 whole entry H1047Y, canonical isoform) above, with Q546K, Y1047H counted along it
Ribosomal protein S6 kinase alpha-2 (Homo sapiens), sequence (Q15349 whole entry): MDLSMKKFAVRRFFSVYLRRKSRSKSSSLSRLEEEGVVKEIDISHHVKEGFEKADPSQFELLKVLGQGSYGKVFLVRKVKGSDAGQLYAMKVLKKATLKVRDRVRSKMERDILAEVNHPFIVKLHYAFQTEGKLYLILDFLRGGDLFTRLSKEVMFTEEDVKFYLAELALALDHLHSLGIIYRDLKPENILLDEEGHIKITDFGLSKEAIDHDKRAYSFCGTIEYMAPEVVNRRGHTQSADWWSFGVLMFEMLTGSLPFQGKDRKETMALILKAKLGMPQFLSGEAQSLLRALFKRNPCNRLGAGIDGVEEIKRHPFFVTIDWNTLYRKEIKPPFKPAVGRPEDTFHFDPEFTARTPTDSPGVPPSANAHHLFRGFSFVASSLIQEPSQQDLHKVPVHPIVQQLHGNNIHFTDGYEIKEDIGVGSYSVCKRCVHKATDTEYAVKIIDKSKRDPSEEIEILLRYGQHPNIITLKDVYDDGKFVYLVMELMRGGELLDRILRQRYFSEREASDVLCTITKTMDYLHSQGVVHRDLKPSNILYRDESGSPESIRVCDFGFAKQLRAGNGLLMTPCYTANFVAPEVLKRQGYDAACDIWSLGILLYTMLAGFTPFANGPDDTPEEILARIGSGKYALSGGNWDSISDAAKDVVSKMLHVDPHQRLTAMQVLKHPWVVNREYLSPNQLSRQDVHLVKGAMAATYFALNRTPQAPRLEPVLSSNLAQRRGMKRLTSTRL
Serine/threonine-protein kinase RIO2 (Homo sapiens), sequence (Q9BVS4 whole entry, looked up): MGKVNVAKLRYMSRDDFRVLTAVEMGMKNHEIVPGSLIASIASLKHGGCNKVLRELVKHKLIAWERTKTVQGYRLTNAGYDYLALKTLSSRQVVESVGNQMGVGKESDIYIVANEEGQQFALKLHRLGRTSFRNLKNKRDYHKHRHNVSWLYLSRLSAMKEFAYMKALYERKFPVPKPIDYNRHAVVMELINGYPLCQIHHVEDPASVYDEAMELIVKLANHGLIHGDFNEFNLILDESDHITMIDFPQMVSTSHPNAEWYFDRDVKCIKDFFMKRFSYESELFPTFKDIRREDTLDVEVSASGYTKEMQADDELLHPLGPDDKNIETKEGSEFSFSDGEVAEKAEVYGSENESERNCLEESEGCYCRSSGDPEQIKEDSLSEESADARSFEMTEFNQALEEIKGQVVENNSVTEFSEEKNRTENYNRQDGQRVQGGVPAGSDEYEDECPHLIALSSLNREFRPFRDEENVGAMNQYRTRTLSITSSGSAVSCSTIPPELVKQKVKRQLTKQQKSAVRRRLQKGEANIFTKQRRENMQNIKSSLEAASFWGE
Phosphatidylinositol 4,5-bisphosphate 3-kinase catalytic subunit alpha isoform (Homo sapiens), P42336 [E545A], sequence (P42336 whole entry E545A, the tested form may be a part, canonical isoform): as the sequence (P42336 whole entry H1047Y, canonical isoform) above, with E545A, Y1047H counted along it

CN(C)C(=O)Cn1cc(-c2nc(C3(c4ccc(-c5cnc(N)nc5)cc4)CC3)no2)cn1 [BI 0153]
inactive: [1] 100% | [2] 100% | [3] 100% | [4] 74% | [5] 76% | [6] 100% | [7] 99% | [8] 76% | [9] 96% | [10] 100% | [11] 100% | [12] 82% | [13] 82% | [14] 100% | [15] 91% | [16] 94% | [17] 100%

CN(C)C(=O)Cn1cc(-c2nc([C@@](C)(c3ccc(-c4cnc(N)nc4)cc3)C3CC3)no2)cn1 [BI 665915]
inactive: [1] 88% | [2] 100% | [3] 95% | [4] 100% | [5] 87% | [6] 100% | [7] 75% | [8] 66% | [9] 91% | [10] 98% | [11] 85% | [12] 86% | [13] 100% | [14] 96% | [15] 80% | [16] 87% | [17] 89%
